Patent publication US20230172867A1, “A METHOD FOR TREATING CANCER WITH AN ORAL DOSAGE FORM OF AN FGFR4 INHIBITOR” (Eisai R&D Management Co., Ltd., priority 2020, published 2023)
“Also recorded” adds a separate entry of the source. Like-named read-outs stand apart in the source and are kept apart here.

Assay: Pharmacokinetic measurements of H3B-6527 capsules in patients (trial NCT02834780), plasma LC-MS/MS
Format: in vivo, human
Details: for Cmax / half-life / Tmax / AUC: human, plasma, oral; for Cmax: read-out: Cmax, geometric mean (CV%); for half-life: read-out: Half-life, geometric mean (CV%) (converted); for Tmax: read-out: Tmax, median (min-max); for AUC: read-out: AUC, geometric mean (CV%)
Description: A description of the first in human clinical trial for H3B-6527 can be found at the ClinicalTrials.gov by searching for trial identifier NCT02834780. In summary, the trial included a study population having the following characteristics: Adult patients ≥18 years old with advanced HCC or ICC; Progression after at least one prior therapy; ECOG score of 0 or 1; Well compensated liver function; FGF19-positive (dose expansion phase only); Excluded if patients have significant active infections [except hepatitis B virus (HBV) and hepatitis C virus (HCV)], gastric or esophageal varices, or previous FGF19-FGFR4 targeted therapy.
Blood samples are collected at the planned time points from each patient and centrifuged. The plasma portion of each sample is then transferred to a K2EDTA tube, which is then shipped to a bioanalytical lab for concentration measurement using LC-MS/MS. The concentration data are then analyzed using Phoenix® WinNonlin software to obtain PK parameters. The obtained PK parameters are further summarized using analytical software.
Drug Administration and Dosage for Dose Escalation: H3B-6527 was administered orally QD or BID on a 21-day cycle. […] Patients in dose escalation phase were treated regardless of FGF19 status. Response determined by RECIST 1.1/modified RECIST every 6 weeks
Further collection and collation of the PK results of the trial of Example 2 at a later point in time are reflected in the following Table 5:
The results of further analysis of the PK data of the trial of Example 2 with the actual date and time of the dose administration and PK sampling after QC, an update from the results of a preliminary analysis with the nominal (i.e. planned) dosing/PK sampling date/time presented in Example 3, are reflected in the following Table 6. In this example the number of patients from which each PK parameter was calculated is shown, rather than the total number of patients receiving a particular dose and regimen as in Table 5.

[1] = 300 mg, 300 mg QD, fasted, Day 1, Table 5, nominal times
[2] = 300 mg, 300 mg QD, fasted, Day 1, Table 6, actual times after QC
[3] = 300 mg, 300 mg QD, fasted, Day 8, Table 5, nominal times
[4] = 300 mg, 300 mg QD, fasted, Day 8, Table 6, actual times after QC
[5] = 500 mg, 500 mg BID, fasted, Day 1, Table 5, nominal times
[6] = 500 mg, 500 mg BID, fasted, Day 1, Table 6, actual times after QC
[7] = 500 mg, 500 mg BID, fasted, Day 8, Table 5, nominal times
[8] = 500 mg, 500 mg BID, fasted, Day 8, Table 6, actual times after QC
[9] = 500 mg, 500 mg BID, fed, Day 1, Table 5, nominal times
[10] = 500 mg, 500 mg BID, fed, Day 1, Table 6, actual times after QC
[11] = 500 mg, 500 mg BID, fed, Day 8, Table 5, nominal times
[12] = 500 mg, 500 mg BID, fed, Day 8, Table 6, actual times after QC
[13] = 600 mg, 600 mg QD, fasted, Day 1, Table 5, nominal times
[14] = 600 mg, 600 mg QD, fasted, Day 1, Table 6, actual times after QC
[15] = 600 mg, 600 mg QD, fasted, Day 8, Table 5, nominal times
[16] = 600 mg, 600 mg QD, fasted, Day 8, Table 6, actual times after QC
[17] = 600 mg, 600 mg QD, fed, Day 1, Table 5, nominal times
[18] = 600 mg, 600 mg QD, fed, Day 1, Table 6, actual times after QC
[19] = 600 mg, 600 mg QD, fed, Day 8, Table 5, nominal times

What does the source list for `C=CC(=O)Nc1cc(N2CCN(CC)CC2)ccc1Nc1cc(N(C)C(=O)Nc2c(Cl)c(OC)cc(OC)c2Cl)ncn1` [H3B-6527, N-(2-((6-(3-(2,6-dichloro-3,5-dimethoxyphenyl)-1-methylureido)pyrimidin-4-yl)amino)-5-(4-ethylpiperazin-1-yl)phenyl)acrylamide]?
AUC, geometric mean (CV%) (300 mg QD, fasted, Day 1, Table 5, nominal times): 73 ng·h/mL; AUC, geometric mean (CV%) (300 mg QD, fasted, Day 8, Table 5, nominal times): 53 ng·h/mL; AUC, geometric mean (CV%) (500 mg BID, fasted, Day 1, Table 5, nominal times): 470 ng·h/mL; AUC, geometric mean (CV%) (500 mg BID, fasted, Day 8, Table 5, nominal times): 1200 ng·h/mL; AUC, geometric mean (CV%) (500 mg BID, fed, Day 1, Table 5, nominal times): 769 ng·h/mL; AUC, geometric mean (CV%) (500 mg BID, fed, Day 8, Table 5, nominal times): 1080 ng·h/mL; exposure in plasma across doses (500 mg to 2000 mg administered with food (FIG. 4)): appeared to be similar across the doses from 500 mg to 2000 mg; AUC, geometric mean (CV%) (600 mg QD, fasted, Day 1, Table 5, nominal times): 175 ng·h/mL; AUC, geometric mean (CV%) (600 mg QD, fasted, Day 8, Table 5, nominal times): 636 ng·h/mL; AUC, geometric mean (CV%) (600 mg QD, fed, Day 1, Table 5, nominal times): 1280 ng·h/mL; AUC, geometric mean (CV%) (600 mg QD, fed, Day 8, Table 5, nominal times): 502 ng·h/mL; AUC, geometric mean (CV%) (700 mg BID, fed, Day 1, Table 5, nominal times): 590 ng·h/mL; AUC, geometric mean (CV%) (700 mg BID, fed, Day 8, Table 5, nominal times): 640 ng·h/mL; AUC, geometric mean (CV%) (1000 mg QD, fasted, Day 1, Table 5, nominal times): 602 ng·h/mL; AUC, geometric mean (CV%) (1000 mg QD, fasted, Day 8, Table 5, nominal times): 912 ng·h/mL; AUC, geometric mean (CV%) (1000 mg QD, fed, Day 1, Table 5, nominal times): 1100 ng·h/mL; AUC, geometric mean (CV%) (1000 mg QD, fed, Day 8, Table 5, nominal times): 865 ng·h/mL; AUC, geometric mean (CV%) (1400 mg QD, fasted, Day 1, Table 5, nominal times): 400 ng·h/mL; AUC, geometric mean (CV%) (1400 mg QD, fasted, Day 8, Table 5, nominal times): 1450 ng·h/mL; AUC, geometric mean (CV%) (1400 mg QD, fed, Day 1, Table 5, nominal times): 5670 ng·h/mL; AUC, geometric mean (CV%) (1400 mg QD, fed, Day 8, Table 5, nominal times): 5450 ng·h/mL; AUC, geometric mean (CV%) (2000 mg QD, fed, Day 1, Table 5, nominal times): 3030 ng·h/mL; AUC, geometric mean (CV%) (2000 mg QD, fed, Day 8, Table 5, nominal times): 1920 ng·h/mL; minimal plasma concentration, BID versus QD schedule (Cycle 1, Day 8 (FIG. 1)): A higher minimal plasma concentration was maintained on the BID schedule; plasma levels / exposure versus dose (QD, fasted, Cycle 1, Day 8 (FIG. 1), preliminary PK analysis): increased with dose from 300 to 1000 mg QD and plateaued; also recorded: increased with dose up to 1000 mg QD; Cmax [1]: 20 ng/mL; half-life [1]: 1.4 h; Tmax [1]: 2 h; AUC [2]: 72.7 ng·h/mL; Cmax [2]: 20.3 ng/mL; half-life [2]: 2.52 h; Tmax [2]: 2 h; Cmax [3]: 11 ng/mL; half-life [3]: 1.2 h; Tmax [3]: 4 h; AUC [4]: 53 ng·h/mL; Cmax [4]: 10.8 ng/mL; half-life [4]: 3.55 h; Tmax [4]: 4 h; Cmax [5]: 124 ng/mL; half-life [5]: 1.9 h; Tmax [5]: 2.75 h; AUC [6]: 292 ng·h/mL; Cmax [6]: 124 ng/mL; half-life [6]: 2.41 h; Tmax [6]: 2.12 h; Cmax [7]: 253 ng/mL; half-life [7]: 1.8 h; Tmax [7]: 3.05 h; AUC [8]: 1110 ng·h/mL; Cmax [8]: 251 ng/mL; half-life [8]: 2.96 h; Tmax [8]: 4 h; Cmax [9]: 255 ng/mL; half-life [9]: 2.1 h; Tmax [9]: 4.02 h; AUC [10]: 768 ng·h/mL; Cmax [10]: 255 ng/mL; half-life [10]: 2.33 h; Tmax [10]: 4.02 h; Cmax [11]: 262 ng/mL; half-life [11]: 2.3 h; Tmax [11]: 4 h; AUC [12]: 814 ng·h/mL; Cmax [12]: 211 ng/mL; half-life [12]: 2.99 h; Tmax [12]: 4 h; Cmax [13]: 74 ng/mL; half-life [13]: 2.4 h; Tmax [13]: 1 h; AUC [14]: 175 ng·h/mL; Cmax [14]: 74.5 ng/mL; half-life [14]: 7.19 h; Tmax [14]: 1 h; Cmax [15]: 194 ng/mL; half-life [15]: 4.8 h; Tmax [15]: 0.52 h; AUC [16]: 636 ng·h/mL; Cmax [16]: 194 ng/mL; half-life [16]: 7.32 h; Tmax [16]: 0.52 h; Cmax [17]: 241 ng/mL; half-life [17]: 3.7 h; Tmax [17]: 4 h; AUC [18]: 1630 ng·h/mL; Cmax [18]: 395 ng/mL; half-life [18]: 3.72 h; Tmax [18]: 4 h; Cmax [19]: 100 ng/mL; half-life [19]: 3.2 h
